Laboratory results taken from ChEMBL document CHEMBL4138080, “Improved synthesis and comparative analysis of the tool properties of new and existing D-ring modified (S)-blebbistatin analogs” (Eur J Med Chem, 2017).
Converted amounts (≈) assume the structure as drawn.

What was measured:
[1] = Inhibition of rabbit full length skeletal muscle myosin 2 ATPase activity using Pre-formed rabbit skeletal muscle F-actin filaments and ATP incubated for 1 hr by CytoPhos reagent based ATPase assay; set-up: species or system Oryctolagus cuniculus
Oryctolagus cuniculus = species: Oryctolagus cuniculus; test: Potency index, ratio of (S)-blebbistatin (S)-1 IC50 to compound IC50 for inhibition of rabbit full length skeletal muscle myosin 2 ATPase activity by CytoPhos reagent based ATPase assay
[2] = Aqueous solubility at steady-state in pH 7.4 PBS at 200 uM after 24 hrs by HPLC method; type: physicochemical; conditions: for solubility at 24 h, 200 µM: PBS, pH 7.4
[3] = Apparent permeability from apical to basolateral side in human Caco2 cells at 10 uM after 60 mins by HPLC-MS/MS analysis; type: ADME, cell-based; conditions: Caco-2
[4] = Apparent permeability from basolateral to apical side in human Caco2 cells at 10 uM after 40 mins by HPLC-MS/MS analysis; type: ADME, cell-based; conditions: Caco-2
[5] = Apparent permeability from apical to basolateral side in human Caco2 cells assessed as drug recovery at 10 uM after 60 mins by HPLC-MS/MS analysis; type: ADME, cell-based; conditions: Caco-2, read-out: Drug recovery
[6] = Apparent permeability from basolateral to apical side in human Caco2 cells assessed as drug recovery at 10 uM after 40 mins by HPLC-MS/MS analysis; type: ADME, cell-based; conditions: Caco-2, read-out: Drug recovery
[7] = Photostability of the compound in DMSO/H20 (1:1) solvent assessed as half life for compound degradation at 100 to 600 uM under irradiation at 390 to 470 nm by HPLC analysis; type: physicochemical; conditions: DMSO/H2O (1:1)
[8] = Photostability of the compound in PBS/MeOH at 20 uM under blue light irradiation at 488 nm assessed as compound degradation after 30 mins by fluorescence spectroscopic analysis; type: physicochemical; conditions: buffer, 0.5 h
[9] = Photostability of the compound in DMSO alone solvent assessed as compound degradation at 100 to 600 uM under irradiation at 390 to 470 nm up to 90 mins by HPLC analysis; type: physicochemical; conditions: 1.5 h
[10] = Photostability of the compound in DMSO/H20 (1:1) solvent assessed as compound degradation at 100 to 600 uM under irradiation at 390 to 470 nm after mins by HPLC analysis; type: physicochemical; conditions: DMSO/H2O (1:1); read-out: Drug degradation

| IC50 [1] [µM] | Ratio IC50 (Oryctolagus cuniculus) | solubility at 24 h, 200 µM [2] [µM] | Papp A→B at 1 h, 10 µM [3] [×10⁻⁶ cm/s] | Papp B→A at 40 min, 10 µM [4] [×10⁻⁶ cm/s] | recovery at 1 h, 10 µM [5] [%] | recovery at 40 min, 10 µM [6] [%] | half-life at up to 600 µM [7] [min] | Compound | also measured |
| --- | --- | --- | --- | --- | --- | --- | --- | --- | --- |
| 9.41 | 0.23 | 2.83 (≈ 0.986 µg/mL) | – | – | – | – | 15 | C=CCOc1cccc(N2CC[C@@]3(O)C(=O)c4cc(C)ccc4N=C23)c1 | – |
| > 40 | < 0.02 | – | – | – | – | – | – | Cc1ccc2c(c1)C(=O)[C@]1(O)CCN(c3ccc4ccccc4c3)C1=N2 | – |
| – | 0.11 | 193 (≈ 59.5 µg/mL) | 28.5 | 17.2 | 49 | 70 | 11 | Cc1ccc2c(c1)C(=O)[C@]1(O)CCN(c3cccc(O)c3)C1=N2 | – |
| 0.873 to 2.16 | 1 | – | 60.5 | 19.2 | 66 | 66 | 14 | Cc1ccc2c(c1)C(=O)[C@]1(O)CCN(c3ccccc3)C1=N2 | solubility ([2]; buffer, pH 7.4, 24 h, 200 µM): 6.18 µM (≈ 1.81 µg/mL); Stability [8]: Stable; Stability [9]: Stable |
| > 40 | < 0.02 | – | – | – | – | – | – | Cc1ccc2c(c1)C(=O)[C@]1(O)CCN(c3ccc(OCc4ccccc4)cc3)C1=N2 | – |
| 5.47 | 0.16 | 82.4 (≈ 25.4 µg/mL) | – | – | – | – | 4.7 | Cc1ccc2c(c1)C(=O)[C@]1(O)CCN(c3ccc(O)cc3)C1=N2 | – |
| – | 0.15 | 186 (≈ 57.2 µg/mL) | 62.7 | 26.2 | 79 | 74 | 13 | Cc1ccc2c(c1)C(=O)[C@]1(O)CCN(c3cccc(N)c3)C1=N2 | – |
| – | < 0.02 | – | – | – | – | – | – | Cc1ccc2c(c1)C(=O)[C@]1(O)CCN(c3cccc(C(N)=O)c3)C1=N2 | – |
| 7.2 | 0.12 | – | – | – | – | – | – | Cc1ccc2c(c1)C(=O)[C@]1(O)CCN(c3ccc4cc[nH]c4c3)C1=N2 | – |
| – | 0.04 | – | – | – | – | – | – | Cc1ccc2c(c1)C(=O)[C@]1(O)CCN(c3cccc(C#N)c3)C1=N2 | – |
| – | 0.19 | > 200 | 69.4 | 31.1 | 85 | 82 | 44 | Cc1ccc2c(c1)C(=O)[C@]1(O)CCN(c3ccc(N)cc3)C1=N2 | – |
| 57.6 | 0.04 | – | – | – | – | – | – | C=CC(=O)Oc1cccc(N2CC[C@@]3(O)C(=O)c4cc(C)ccc4N=C23)c1 | – |

Continued, molecule first:

| Compound | IC50 [1] [µM] | Ratio IC50 (Oryctolagus cuniculus) | solubility at 24 h, 200 µM [2] [µM] | Papp A→B at 1 h, 10 µM [3] [×10⁻⁶ cm/s] | Papp B→A at 40 min, 10 µM [4] [×10⁻⁶ cm/s] | recovery at 1 h, 10 µM [5] [%] | recovery at 40 min, 10 µM [6] [%] | half-life at up to 600 µM [7] [min] | also measured |
| --- | --- | --- | --- | --- | --- | --- | --- | --- | --- |
| Cc1ccc2c(c1)C(=O)[C@]1(O)CCN(c3ccc4c(c3)NCC4)C1=N2 | 7.7 | 0.11 | – | – | – | – | – | – | – |
| C=CCOc1ccc(N2CC[C@@]3(O)C(=O)c4cc(C)ccc4N=C23)cc1 | 0.38 | 2.3 | 2.75 (≈ 0.958 µg/mL) | 29.7 | 7.58 | 32 | 65 | 8.8 | – |
| Cc1ccc2c(c1)C(=O)[C@]1(O)CCN(c3cccc(C(=O)O)c3)C1=N2 | – | < 0.02 | – | – | – | – | – | – | – |
| Cc1ccc2c(c1)C(=O)[C@]1(O)CCN(c3ccc([N+](=O)[O-])cc3)C1=N2 | – | 2.5 | 31.7 (≈ 10.7 µg/mL) | 32.5 | 2.23 | 34 | 72 | > 90 | degraded at up to 600 µM [10]: 33% |
| CCC(=O)Oc1cccc(N2CC[C@@]3(O)C(=O)c4cc(C)ccc4N=C23)c1 | 23.5 | 0.09 | – | – | – | – | – | – | – |
| CCC(=O)Nc1cccc(N2CC[C@@]3(O)C(=O)c4cc(C)ccc4N=C23)c1 | > 100 | < 0.02 | – | – | – | – | – | – | – |
| C=CCN(CC=C)c1cccc(N2CC[C@@]3(O)C(=O)c4cc(C)ccc4N=C23)c1 | > 10.8 | – | – | – | – | – | – | – | – |
| C=CC(=O)Nc1cccc(N2CC[C@@]3(O)C(=O)c4cc(C)ccc4N=C23)c1 | > 100 | < 0.02 | – | – | – | – | – | – | – |
